Assay [1] relates to Kp 43816. The format is cell-based, Klebsiella pneumoniae. In short, it runs like this:
(§1)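 Twofold dilution series of each agent received bacterial cells from MHA plates (saline, ~0.1 OD600 nm), with RPMI B medium used for drug conjugates. Plates were shaken and held at 35° C overnight (16-20 h). LES431 was tested in presence and absence of 50% heat-inactivated fetal bovine serum.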

Assay [2] concerns Kp 10031. The format is cell-based, Klebsiella pneumoniae. In short, it runs like this: as §1
Assay [3] has as its system Kp 6951 (COL^R). The format is cell-based, Klebsiella pneumoniae. The following applies: Kp 6951 (COL^R); media CA-MHB. In a few lines: as §1
In assay [4] the test system is Ec 25922 64X-1 (COL^R). The format is cell-based, Escherichia coli. To be noted: media CA-MHB.
The test system of assay [5] is Ec AR0349 (mcr-1, COL^R). The format is cell-based, Escherichia coli. To be noted: media CA-MHB.
Assay [6] deals with LPS from E. coli O111:B4. The experiment in a line: LPS binding/neutralization by Limulus Amebocyte Lysate (LAL) assay. The format is biochemical. To be noted: LPS 1-10,000 ng/mL, test article 0.25-10 μM; sum of AUCs relative to maximal AUC (Table 15). In short, it runs like this:
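E. coli O111:B4 LPS (1-10,000 ng/mL) preincubated with test article (0.25-10 μM) for 5 min at 37° C., then LAL reagent added and absorbance at 405 nm read after 15 min. % neutralization relative to PBS and LPS-only controls; single value from summed dose-response AUCs versus maximal achievable AUC ×100.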

Assay [7] deals with Pa 27853. The format is cell-based, Pseudomonas aeruginosa. In a few lines:
as §1

Assay [8] relates to Pa PAO1. The format is cell-based, Pseudomonas aeruginosa. To be noted: for MIC in RPMI PA 01: PAO1, pH 7.4. In short, it runs like this: as §1
In assay [9] the test system is Pa LES431. The format is cell-based, Pseudomonas aeruginosa. In short, it runs like this:
as §1

Assay [10] relates to Sa RN. The format is cell-based.

Converted amounts (≈) assume the structure as drawn. Read-outs that look alike come from different tables or passages of the source. *1 amine or outer side, *2 acyl side, *3 side chain or, on linkers, in order; H or OH if unused. Where a SMILES comes first, the peptide text is derived from it. Bridges are numbered along the chain shown (N, C = ends). Roman numbers before positions name the chains, in order. [ ]: non-standard residue; d: D form. The star is where a group is joined. X5 = C#CCOCCOCCOCCOCCN1C[C@@H](C(=O)[*:1])[C@H](C(=O)[*:2])C1; X2 = O=C([C@@H](N[*:1])[C@H](O)CCC(F)(F)F)[*:2]; Propargyl(OCH2CH2)4CO = C#CCOCCOCCOCCOCCC(=O)*; X3 = CCCCC[C@@H](O)[C@H](N[*:1])C(=O)[*:2]; azaDab = NCCN(N[*:1])C(=O)[*:2]; Aoc(2) = CCCCCC[C@H](N)C(=O)O; hLeu = CC(C)CC[C@H](N)C(=O)O; Nle = CCCC[C@H](N)C(=O)O; Dab = NCC[C@H](N)C(=O)O; azaGly = NNC(=O)O Some results are limits rather than exact numbers.

As for `C#CCOCCOCCOCCOCCC(=O)N[C@@H](CCC(C)C)C(=O)N[C@@H](CCN)C(=O)N[C@H](C(=O)NNC(=O)N[C@H]1CCNC(=O)[C@H]([C@@H](C)O)NC(=O)[C@H](CCN)NC(=O)[C@H](CCN)NC(=O)[C@H](CC(C)C)NC(=O)[C@@H](Cc2ccccc2)NC(=O)[C@H](CCN)NC1=O)[C@H](O)CCCCC` [Int-116] ({Propargyl(OCH2CH2)4CO}-[hLeu][Dab][X3][azaGly][Dab][Dab][dF]L[Dab][Dab]T; lactam 5-C), the minimum inhibitory concentration (MIC) (in general, the lowest concentration that inhibits growth of the organism) in assay [1] was 2 µg/mL (≈ 1.38 µM); in assay [2] it was 2 µg/mL (≈ 1.38 µM); in assay [3], over 128 µg/mL; in assay [4] it was 64 µg/mL (≈ 44.2 µM); in assay [5], 8 µg/mL (≈ 5.53 µM); in [7] it was 4 µg/mL (≈ 2.76 µM). For the same compound, the minimum inhibitory concentration (MIC) in assay [8] (PAO1) was 4 µg/mL (≈ 2.76 µM); in assay [9], 4 µg/mL (≈ 2.76 µM); in assay [10], over 128 µg/mL. The “% LPS neutralization” value in assay [6] is 33.2%. Besides, the “MIC in RPMI PA 01” value in [8] was determined as 8.41 µg/mL (≈ 5.81 µM).
Take `C#CCOCCOCCOCCOCCC(=O)N[C@@H](CCCCCC)C(=O)N[C@@H](CCN)C(=O)N[C@H](C(=O)N[C@@H](CCN)C(=O)N[C@H]1CCNC(=O)[C@H]([C@@H](C)O)NC(=O)[C@H](CCN)NC(=O)[C@H](CCN)NC(=O)[C@H](CC(C)C)NC(=O)[C@@H](Cc2ccccc2)NC(=O)[C@H](CCN)NC1=O)[C@H](O)CCC(F)(F)F` [Int-118] ({Propargyl(OCH2CH2)4CO}-[Aoc(2)][Dab][X2][Dab][Dab][Dab][dF]L[Dab][Dab]T; lactam 5-C): the MIC is 2 µg/mL (≈ 1.31 µM) in assay [1]; 2 µg/mL (≈ 1.31 µM) in [2]; 2 µg/mL (≈ 1.31 µM) in assay [7]; 2 µg/mL (≈ 1.31 µM) in assay [8] (PAO1); 1 µg/mL (≈ 0.654 µM) in assay [9]; over 128 µg/mL in assay [10]. Moreover, the “% LPS neutralization” value in assay [6] came out at 59.0%. For the same compound, the “MIC in RPMI PA 01” value in [8] was found to be 3.81 µg/mL (≈ 2.49 µM).
Take `C#CCOCCOCCOCCOCCN1C[C@@H](C(=O)N[C@@H](CCCC)C(=O)N[C@@H](CCN)C(=O)N[C@H](C(=O)NNC(=O)N[C@H]2CCNC(=O)[C@H]([C@@H](C)O)NC(=O)[C@H](CCN)NC(=O)[C@H](CCN)NC(=O)[C@H](CC(C)C)NC(=O)[C@@H](Cc3ccccc3)NC(=O)[C@H](CCN)NC2=O)[C@@H](C)O)[C@H](C(=O)N[C@@H](CCCC)C(=O)N[C@@H](CCN)C(=O)N[C@H](C(=O)NNC(=O)N[C@H]2CCNC(=O)[C@H]([C@@H](C)O)NC(=O)[C@H](CCN)NC(=O)[C@H](CCN)NC(=O)[C@H](CC(C)C)NC(=O)[C@@H](Cc3ccccc3)NC(=O)[C@H](CCN)NC2=O)[C@@H](C)O)C1` [Int-120] (I: [Nle][Dab]T[azaGly][Dab][Dab][dF]L[Dab][Dab]T / II: [Nle][Dab]T[azaGly][Dab][Dab][dF]L[Dab][Dab]T; lactam I:5-I:C, II:5-II:C; linker I:N-II:N via X5): the MIC is 2 µg/mL (≈ 0.767 µM) in [1] (Kp 43816, media CA-MHB); 2 µg/mL (≈ 0.767 µM) in assay [2] (Kp 10031, media CA-MHB); 8 µg/mL (≈ 3.07 µM) in assay [3]; 2 µg/mL (≈ 0.767 µM) in assay [4]; 2 µg/mL (≈ 0.767 µM) in [5]; 4 µg/mL (≈ 1.53 µM) in [7] (Pa 27853, media CA-MHB). Further, the MIC in assay [8] (Pa PAO1, media CA-MHB) was 4 µg/mL (≈ 1.53 µM); in assay [9] (Pa LES431 + FBS (50%, heat-inactivated), media CA-MHB) it was 8 µg/mL; in assay [9] (Pa LES431, media CA-MHB), 2 µg/mL (≈ 0.767 µM); in assay [10] it was over 128 µg/mL. Moreover, the “% LPS neutralization” value in assay [6] was 68.0%.
As to `C#CCOCCOCCOCCOCCC(=O)N[C@@H](CCC(C)C)C(=O)N[C@@H](CCN)C(=O)N[C@H](C(=O)NN(CCN)C(=O)N[C@H]1CCNC(=O)[C@H]([C@@H](C)O)NC(=O)[C@H](CCN)NC(=O)[C@H](CCN)NC(=O)[C@H](CC(C)C)NC(=O)[C@@H](Cc2ccccc2)NC(=O)[C@H](CCN)NC1=O)[C@@H](C)O` [Int-127] ({Propargyl(OCH2CH2)4CO}-[hLeu][Dab]T[azaDab][Dab][Dab][dF]L[Dab][Dab]T; lactam 5-C), the MIC was 1 µg/mL (≈ 0.697 µM) in assay [1]; 1 µg/mL (≈ 0.697 µM) in [2]; over 128 µg/mL in [3]; 64 µg/mL (≈ 44.6 µM) in [4]; 8 µg/mL (≈ 5.58 µM) in assay [5]; 2 µg/mL (≈ 1.39 µM) in assay [7]. Moreover, the minimum inhibitory concentration (MIC) was 2 µg/mL (≈ 1.39 µM) in assay [8] (PAO1), 1 µg/mL (≈ 0.697 µM) in assay [9] and over 128 µg/mL in [10]. In assay [6], the “% LPS neutralization” value was found to be 13.0%. Moreover, the “MIC in RPMI PA 01” value in [8] stood at 3.99 µg/mL (≈ 2.78 µM).
In the case of `C#CCOCCOCCOCCOCCC(=O)N[C@@H](CCCCCC)C(=O)N[C@@H](CCN)C(=O)N[C@H](C(=O)NN(CCN)C(=O)N[C@H]1CCNC(=O)[C@H]([C@@H](C)O)NC(=O)[C@H](CCN)NC(=O)[C@H](CCN)NC(=O)[C@H](CC(C)C)NC(=O)[C@@H](Cc2ccccc2)NC(=O)[C@H](CCN)NC1=O)[C@@H](C)O` [Int-129] ({Propargyl(OCH2CH2)4CO}-[Aoc(2)][Dab]T[azaDab][Dab][Dab][dF]L[Dab][Dab]T; lactam 5-C), the MIC in [1] was 2 µg/mL (≈ 1.38 µM); in assay [2], 2 µg/mL (≈ 1.38 µM); in assay [7], 4 µg/mL (≈ 2.76 µM); in assay [8] (PAO1) it was 8 µg/mL (≈ 5.53 µM); in [9], 2 µg/mL (≈ 1.38 µM); in [10] it was over 128 µg/mL. The “% LPS neutralization” value in assay [6] was found to be 23.0%.
